Positions of bridges follow the written chain, without caps; N, C: chain ends. Non-standard residues stand in square brackets, D forms with d. Residues, ends and D or L forms follow the SMILES beside them. Trp(1-CH2COOH) = N[C@@H](Cc1cn(CC(=O)O)c2ccccc12)C(=O)O; NMePhe(3-Cl) = CN[C@@H](Cc1cccc(Cl)c1)C(=O)O; NMeY = CN[C@@H](Cc1ccc(O)cc1)C(=O)O; 3Pal = N[C@@H](Cc1cccnc1)C(=O)O; 4Pal = N[C@@H](Cc1ccncc1)C(=O)O; PEG4 = NCCOCCOCCOCCOCCC(=O)O
The compounds below were run against T1, human transferrin receptor (hTfR) (Homo sapiens, UniProt P02786) (assay: Evaluation of molecular interaction between transferrin receptor (hTfR) and peptide using surface plasmon resonance (SPR)). Conditions: surface plasmon resonance, binding to hTfR; KD class symbol; read-out: SPR (KD value).
T1 construct: made in house
Format: binding
Procedure, shortened: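 Recombinant human TfR dimer (0.5 μM) was captured on a Ni-charged NTA chip and amine-coupled with EDC/NHS, then ethanolamine-capped. Peptides at 5–100 nM in HEPES pH 8.0 buffer with 150 mM NaCl, 0.05% Tween 20, 0.1% BSA and 1.0% DMSO were run by single-cycle kinetics; KD came from least-squares curve fitting.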

T1 sequence (P02786 89-760 limits assumed): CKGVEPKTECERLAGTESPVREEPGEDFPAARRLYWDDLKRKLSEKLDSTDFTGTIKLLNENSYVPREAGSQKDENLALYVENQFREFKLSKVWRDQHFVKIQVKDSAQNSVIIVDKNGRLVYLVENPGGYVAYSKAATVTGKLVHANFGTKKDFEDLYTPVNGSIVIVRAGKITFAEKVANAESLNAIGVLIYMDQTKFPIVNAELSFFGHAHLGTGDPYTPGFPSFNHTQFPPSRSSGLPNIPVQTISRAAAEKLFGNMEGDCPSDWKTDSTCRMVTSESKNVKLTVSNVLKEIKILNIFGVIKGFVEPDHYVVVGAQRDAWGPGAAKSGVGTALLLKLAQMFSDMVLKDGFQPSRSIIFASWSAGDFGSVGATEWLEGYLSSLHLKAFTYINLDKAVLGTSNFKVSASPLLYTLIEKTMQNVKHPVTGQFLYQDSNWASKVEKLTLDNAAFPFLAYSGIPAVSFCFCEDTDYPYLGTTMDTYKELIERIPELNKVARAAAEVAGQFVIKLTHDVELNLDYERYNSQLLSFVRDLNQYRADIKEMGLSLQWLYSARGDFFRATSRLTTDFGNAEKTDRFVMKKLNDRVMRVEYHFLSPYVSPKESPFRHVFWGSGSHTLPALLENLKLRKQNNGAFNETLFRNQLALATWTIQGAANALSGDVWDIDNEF

**Q.** How did the Kd turn out when `CC[C@H](C)[C@@H]1NC(=O)[C@H](Cc2ccc(OC)cc2)NC(=O)[C@H](Cc2ccc(O)cc2)NC(=O)[C@H](CC(N)=O)NC(=O)[C@H](Cc2c[nH]c3ccccc23)N(C)C(=O)[C@H](C(C)C)NC(=O)[C@H](Cc2ccc(F)cc2)N(C)C(=O)[C@H](C(C)C)NC(=O)[C@H](C)NC(=O)CSC[C@@H](C(=O)NCCOCCOCCOCCOCCC(N)=O)NC(=O)[C@H](Cc2ccc(O)cc2)N(C)C(=O)[C@H](Cc2ccccc2)NC(=O)[C@@H](CCCNC(=N)N)NC(=O)[C@H](CCCNC(=N)N)NC(=O)[C@H]([C@@H](C)CC)NC1=O` [compound 29] was run?
**A.** 1 to 100 nM

**Q.** `CC[C@H](C)[C@@H]1NC(=O)[C@H](Cc2ccc(OC)cc2)NC(=O)[C@H](Cc2ccc(O)cc2)NC(=O)[C@H](CC(N)=O)NC(=O)[C@H](Cc2c[nH]c3ccccc23)N(C)C(=O)[C@H](C(C)C)NC(=O)[C@H](Cc2ccc(F)cc2)N(C)C(=O)[C@H](C(C)C)NC(=O)[C@H](C)NC(=O)CSC[C@@H](C(=O)NCCOCCOCCOCCOCCC(N)=O)NC(=O)[C@H](Cc2ccc(O)cc2)N(C)C(=O)[C@H](Cc2ccccc2)NC(=O)[C@@H](CCCNC(=N)N)NC(=O)[C@H](CCCNC(=N)N)N(C)C(=O)[C@H]([C@@H](C)CC)NC1=O` [compound 30] was tested. Which Kd did it give?
**A.** 1 to 100 nM

**Q.** `CC[C@H](C)[C@@H]1NC(=O)[C@H](Cc2ccc(OC)cc2)NC(=O)[C@H](Cc2ccc(O)cc2)NC(=O)[C@H](CC(N)=O)NC(=O)[C@H](Cc2c[nH]c3ccc(Cl)cc23)NC(=O)[C@H](C(C)C)NC(=O)[C@H](Cc2ccccc2)N(C)C(=O)[C@H](C(C)C)NC(=O)[C@H](C)NC(=O)CSC[C@@H](C(=O)NCCOCCOCCOCCOCCC(N)=O)NC(=O)[C@H](Cc2ccc(O)cc2)N(C)C(=O)[C@H](Cc2ccc(O)cc2)NC(=O)[C@H](CCCNC(=N)N)NC(=O)[C@H](CCCNC(=N)N)NC(=O)[C@H]([C@@H](C)CC)NC1=O` [compound 37] was tested. Which Kd did it give?
**A.** < 1 nM

**Q.** With `CC[C@H](C)[C@@H]1NC(=O)[C@H](Cc2ccc(OC)cc2)NC(=O)[C@H](Cc2ccc(O)cc2)NC(=O)[C@H](CC(N)=O)NC(=O)[C@H](Cc2c[nH]c3ccccc23)NC(=O)[C@H](C(C)C)NC(=O)[C@H](Cc2cccc(Cl)c2)N(C)C(=O)[C@H](C(C)C)NC(=O)[C@H](C)NC(=O)CSC[C@@H](C(=O)NCCOCCOCCOCCOCCC(N)=O)NC(=O)[C@H](Cc2ccc(O)cc2)N(C)C(=O)[C@H](Cc2ccc(O)cc2)NC(=O)[C@H](CCCNC(=N)N)NC(=O)[C@H](CCCNC(=N)N)NC(=O)[C@H]([C@@H](C)CC)NC1=O` [compound 38] as the compound, how does the Kd read?
**A.** < 1 nM

**Q.** With `CC[C@H](C)[C@@H]1NC(=O)[C@H](Cc2ccc(OC)cc2)NC(=O)[C@H](Cc2ccc(O)cc2)NC(=O)[C@H](CC(N)=O)NC(=O)[C@H](Cc2cn(CC(=O)O)c3ccccc23)NC(=O)[C@H](C(C)C)NC(=O)[C@H](Cc2cccc(Cl)c2)N(C)C(=O)[C@H](C(C)C)NC(=O)[C@H](C)NC(=O)CSC[C@@H](C(=O)NCC(=O)N[C@H](CCC(=O)O)C(=O)N[C@H](CCC(=O)O)C(=O)N[C@H](CCC(=O)O)C(=O)N[C@H](CO)C(=O)N[C@H](CO)C(=O)N[C@@H](CCCCN=[N+]=[N-])C(N)=O)NC(=O)[C@H](Cc2ccc(O)cc2)N(C)C(=O)[C@H](Cc2ccccc2)NC(=O)[C@H](CCCNC(=N)N)NC(=O)[C@H](CCCNC(=N)N)NC(=O)[C@H](CCC(=O)O)NC1=O` [compound 39] as the compound, how does the Kd read?
**A.** < 1 nM

**Q.** With `CC[C@H](C)[C@@H]1NC(=O)[C@H](Cc2ccc(OCC(=O)O)cc2)NC(=O)[C@H](Cc2ccc(O)cc2)NC(=O)[C@H](CC(N)=O)NC(=O)[C@H](Cc2cn(CC(=O)O)c3ccccc23)NC(=O)[C@H](C(C)C)NC(=O)[C@H](Cc2cccc(Cl)c2)N(C)C(=O)[C@H](C(C)C)NC(=O)[C@H](C)NC(=O)CSC[C@@H](C(=O)NCC(=O)N[C@H](CCC(=O)O)C(=O)N[C@H](CCC(=O)O)C(=O)N[C@H](CCC(=O)O)C(=O)N[C@H](CO)C(=O)N[C@H](CO)C(=O)N[C@@H](CCCCN=[N+]=[N-])C(N)=O)NC(=O)[C@H](Cc2ccc(O)cc2)N(C)C(=O)[C@H](Cc2ccccc2)NC(=O)[C@H](CCCNC(=N)N)NC(=O)[C@H](CCCNC(=N)N)NC(=O)[C@H]([C@@H](C)CC)NC1=O` [compound 40] as the compound, how does the Kd read?
**A.** < 1 nM

**Q.** How did the Kd turn out when `CC[C@H](C)[C@@H]1NC(=O)[C@H](Cc2ccc(OCC(=O)O)cc2)NC(=O)[C@H](Cc2ccc(O)cc2)NC(=O)[C@H](CC(N)=O)NC(=O)[C@H](Cc2c[nH]c3ccccc23)NC(=O)[C@H](C(C)C)NC(=O)[C@H](Cc2ccccc2)N(C)C(=O)[C@H](C(C)C)NC(=O)[C@H](C)NC(=O)CSC[C@@H](C(=O)NCC(=O)N[C@H](CCC(=O)O)C(=O)N[C@H](CCC(=O)O)C(=O)N[C@H](CCC(=O)O)C(=O)N[C@H](CO)C(=O)N[C@H](CO)C(=O)N[C@@H](CCCCN=[N+]=[N-])C(N)=O)NC(=O)[C@H](Cc2ccc(O)cc2)N(C)C(=O)[C@H](Cc2ccc(O)cc2)NC(=O)[C@H](CCCNC(=N)N)NC(=O)[C@H](CCCNC(=N)N)NC(=O)[C@H]([C@@H](C)CC)NC1=O` [compound 41] was run?
**A.** 1 to 100 nM

**Q.** For `CC[C@H](C)[C@@H]1NC(=O)[C@H](Cc2ccc(OCC(=O)O)cc2)NC(=O)[C@H](Cc2ccc(O)cc2)NC(=O)[C@H](CC(N)=O)NC(=O)[C@H](Cc2cn(CC(=O)O)c3ccccc23)NC(=O)[C@H](C(C)C)NC(=O)[C@H](Cc2ccccc2)N(C)C(=O)[C@H](C(C)C)NC(=O)[C@H](C)NC(=O)CSC[C@@H](C(=O)NCC(=O)N[C@H](CCC(=O)O)C(=O)N[C@H](CCC(=O)O)C(=O)N[C@H](CCC(=O)O)C(=O)N[C@H](CO)C(=O)N[C@H](CO)C(=O)N[C@@H](CCCCN=[N+]=[N-])C(N)=O)NC(=O)[C@H](Cc2ccc(O)cc2)N(C)C(=O)[C@H](Cc2ccc(O)cc2)NC(=O)[C@H](CCCNC(=N)N)NC(=O)[C@H](CCCNC(=N)N)NC(=O)[C@H]([C@@H](C)CC)NC1=O` [compound 42], which Kd is on record?
**A.** 1 to 100 nM

**Q.** How did the Kd turn out when `CC[C@H](C)[C@@H]1NC(=O)[C@H](Cc2ccc(OC)cc2)NC(=O)[C@H](Cc2ccc(O)cc2)NC(=O)[C@H](CC(N)=O)NC(=O)[C@H](Cc2cn(CC(=O)O)c3ccccc23)NC(=O)[C@H](C(C)C)NC(=O)[C@H](Cc2cccc(Cl)c2)N(C)C(=O)[C@H](C(C)C)NC(=O)[C@H](C)NC(=O)CSC[C@@H](C(=O)NCCOCCOCCOCCOCCC(N)=O)NC(=O)[C@H](Cc2ccc(O)cc2)N(C)C(=O)[C@H](Cc2ccccc2)NC(=O)[C@H](CCCNC(=N)N)NC(=O)[C@H](CCCNC(=N)N)NC(=O)[C@H](CCC(=O)O)NC1=O` [compound 43] was run?
**A.** 1 to 100 nM

**Q.** For `CC[C@H](C)[C@@H]1NC(=O)[C@H](Cc2ccc(OCC(=O)O)cc2)NC(=O)[C@H](Cc2ccc(O)cc2)NC(=O)[C@H](CC(N)=O)NC(=O)[C@H](Cc2cn(CC(=O)O)c3ccccc23)NC(=O)[C@H](C(C)C)NC(=O)[C@H](Cc2cccc(Cl)c2)N(C)C(=O)[C@H](C(C)C)NC(=O)[C@H](C)NC(=O)CSC[C@@H](C(=O)NCCOCCOCCOCCOCCC(N)=O)NC(=O)[C@H](Cc2ccc(O)cc2)N(C)C(=O)[C@H](Cc2ccccc2)NC(=O)[C@H](CCCNC(=N)N)NC(=O)[C@H](CCCNC(=N)N)NC(=O)[C@H]([C@@H](C)CC)NC1=O` [compound 44], which Kd is on record?
**A.** 1 to 100 nM

**Q.** Which Kd does the source give for `CC[C@H](C)[C@@H]1NC(=O)[C@H](Cc2ccc(OCC(=O)O)cc2)NC(=O)[C@H](Cc2ccc(O)cc2)NC(=O)[C@H](CC(N)=O)NC(=O)[C@H](Cc2c[nH]c3ccccc23)NC(=O)[C@H](C(C)C)NC(=O)[C@H](Cc2ccccc2)N(C)C(=O)[C@H](C(C)C)NC(=O)[C@H](C)NC(=O)CSC[C@@H](C(=O)NCCOCCOCCOCCOCCC(N)=O)NC(=O)[C@H](Cc2ccc(O)cc2)N(C)C(=O)[C@H](Cc2ccc(O)cc2)NC(=O)[C@H](CCCNC(=N)N)NC(=O)[C@H](CCCNC(=N)N)NC(=O)[C@H]([C@@H](C)CC)NC1=O` [compound 45] here?
**A.** 1 to 100 nM

**Q.** `CC[C@H](C)[C@@H]1NC(=O)[C@H](Cc2ccc(OCC(=O)O)cc2)NC(=O)[C@H](Cc2ccc(O)cc2)NC(=O)[C@H](CC(N)=O)NC(=O)[C@H](Cc2cn(CC(=O)O)c3ccccc23)NC(=O)[C@H](C(C)C)NC(=O)[C@H](Cc2ccccc2)N(C)C(=O)[C@H](C(C)C)NC(=O)[C@H](C)NC(=O)CSC[C@@H](C(=O)NCCOCCOCCOCCOCCC(N)=O)NC(=O)[C@H](Cc2ccc(O)cc2)N(C)C(=O)[C@H](Cc2ccc(O)cc2)NC(=O)[C@H](CCCNC(=N)N)NC(=O)[C@H](CCCNC(=N)N)NC(=O)[C@H]([C@@H](C)CC)NC1=O` [compound 46] was tested. Which Kd did it give?
**A.** 1 to 100 nM

**Q.** Which Kd does the source give for `CC[C@H](C)[C@@H]1NC(=O)[C@H](Cc2ccc(OCC(=O)O)cc2)NC(=O)[C@H](Cc2ccc(O)cc2)NC(=O)[C@H](CC(N)=O)NC(=O)[C@H](Cc2cn(CC(=O)O)c3ccccc23)NC(=O)[C@H](C(C)C)NC(=O)[C@H](Cc2cccc(Cl)c2)N(C)C(=O)[C@H](C(C)C)NC(=O)[C@H](C)NC(=O)CSC[C@@H](C(=O)NCC(=O)NCCOCCOCCOCCOCCOCCOCCOCCOCCC(=O)N[C@@H](CCCCN=[N+]=[N-])C(N)=O)NC(=O)[C@H](Cc2ccc(O)cc2)N(C)C(=O)[C@H](Cc2ccccc2)NC(=O)[C@H](CCCNC(=N)N)NC(=O)[C@H](CCCNC(=N)N)NC(=O)[C@H]([C@@H](C)CC)NC1=O` [compound 47] here?
**A.** 1 to 100 nM

**Q.** Which Kd does the source give for `CC[C@H](C)[C@@H]1NC(=O)[C@H](Cc2cccnc2)NC(=O)[C@H](Cc2ccc(O)cc2)NC(=O)[C@H](CC(N)=O)NC(=O)[C@H](Cc2cn(CC(=O)O)c3ccccc23)NC(=O)[C@H](C(C)C)NC(=O)[C@H](Cc2cccc(Cl)c2)N(C)C(=O)[C@H](C(C)C)NC(=O)[C@H](C)NC(=O)CSC[C@@H](C(=O)NCCOCCOCCOCCOCCC(N)=O)NC(=O)[C@H](Cc2ccc(O)cc2)N(C)C(=O)[C@H](Cc2ccncc2)NC(=O)[C@H](CCCNC(=N)N)NC(=O)[C@H](CCCNC(=N)N)NC(=O)[C@H]([C@@H](C)CC)NC1=O` [compound 48] ({CH2CO}-AV[NMePhe(3-Cl)]V[Trp(1-CH2COOH)]NY[3Pal]IIRR[4Pal][NMeY]C[PEG4]-NH2; thioether N-15) here?
**A.** 1 to 100 nM

Source: patent publication US20260116920A1, “HUMAN TRANSFERRIN RECEPTOR BINDING PEPTIDE” (PEPTIDREAM INC., priority 2021, published 2026)
